PubChem BioAssay AID256 (DTP/NCI, 2004)
Inconclusive results and toxic doses are left out.

Tested on: CD2F1 mice, L1210 leukemia ip, survival T/C
Assay: NCI In Vivo Anticancer Drug Screen. Data for tumor model L1210 Leukemia (intraperitoneal) in CD2F1 (CDF1) mice
Conditions: higher = longer survival
In short: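 Activity against a transplanted murine tumor was judged by comparing the compound group with a vehicle group. The outcome in the treated animals was divided by that in the controls.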

[1] = endpoint: mean survival time, dose: 12.5 mg/kg/injection, schedule: Q01DX009 (ip), vehicle: saline
[2] = endpoint: mean survival time, dose: 25.0 mg/kg/injection, schedule: Q01DX009 (ip), vehicle: saline
[3] = endpoint: mean survival time, dose: 50.0 mg/kg/injection, schedule: Q01DX009 (ip), vehicle: saline
[4] = endpoint: mean survival time, dose: 100.0 mg/kg/injection, schedule: Q01DX009 (ip), vehicle: saline
[5] = endpoint: mean survival time, dose: 100.0 mg/kg/injection, schedule: Q04DX003 (ip), vehicle: saline

## Cc1ccc(S(=O)(=O)OC(c2ccccc2)C(F)(F)F)cc1 (stereo unspecified)
endpoint: mean survival time, dose: 100.0 mg/kg/injection, schedule: Q01DX001 (ip), vehicle: saline with Tween-80
  T/C: 100 % of control
endpoint: mean survival time, dose: 200.0 mg/kg/injection, schedule: Q01DX001 (ip), vehicle: saline with Tween-80
  T/C: 103 % of control
endpoint: mean survival time, dose: 400.0 mg/kg/injection, schedule: Q01DX001 (ip), vehicle: saline with Tween-80
  T/C: 94 % of control

## CC(=O)NNC(=O)c1ccccn1
[1]
  T/C: 114 % of control
[2]
  T/C: 110 % of control
[3]
  T/C: 104 % of control
endpoint: mean survival time, dose: 50.0 mg/kg/injection, schedule: Q#A X018 (ip), vehicle: water
  T/C: 103 % of control
endpoint: mean survival time, dose: 100.0 mg/kg/injection, schedule: Q01DX001 (ip), vehicle: water
  T/C: 101 % of control
[4]
  T/C: 104 % of control
endpoint: mean survival time, dose: 100.0 mg/kg/injection, schedule: Q01DX009 (ip), vehicle: water
  T/C: 110 % of control
endpoint: mean survival time, dose: 100.0 mg/kg/injection, schedule: Q01DX009 (sc), vehicle: water
  T/C: 119 % of control
endpoint: mean survival time, dose: 200.0 mg/kg/injection, schedule: Q01DX001 (ip), vehicle: water
  T/C: 109 % of control
endpoint: mean survival time, dose: 200.0 mg/kg/injection, schedule: Q01DX009 (sc), vehicle: water
  T/C: 122 % of control

## CCOC(=O)/C=C/c1c[nH]c(C(=O)OCC)c1
endpoint: mean survival time, dose: 100.0 mg/kg/injection, schedule: Q04DX002 (ip), vehicle: other
  T/C: 93 % of control
endpoint: mean survival time, dose: 200.0 mg/kg/injection, schedule: Q04DX002 (ip), vehicle: other
  T/C: 93 % of control
endpoint: mean survival time, dose: 400.0 mg/kg/injection, schedule: Q04DX002 (ip), vehicle: other
  T/C: 100 % of control

## CN1CSC(=S)N(Cc2ccccc2)C1
endpoint: mean survival time, dose: 100.0 mg/kg/injection, schedule: Q01DX009 (ip), vehicle: saline with Tween-80
  T/C: 93 % of control
endpoint: mean survival time, dose: 200.0 mg/kg/injection, schedule: Q01DX009 (ip), vehicle: saline with Tween-80
  T/C: 93 % of control
endpoint: mean survival time, dose: 400.0 mg/kg/injection, schedule: Q01DX009 (ip), vehicle: saline with Tween-80
  T/C: 93 % of control

## Cc1cn(C2CC3OP(=O)(OCc4ccccc4)OCC3O2)c(=O)[nH]c1=O (stereo unspecified)
endpoint: median survival time, dose: 12.5 mg/kg/injection, schedule: Q01DX005 (ip), vehicle: distilled water + Tween-80
  T/C: 100 % of control
endpoint: median survival time, dose: 25.0 mg/kg/injection, schedule: Q01DX005 (ip), vehicle: distilled water + Tween-80
  T/C: 101 % of control
endpoint: median survival time, dose: 50.0 mg/kg/injection, schedule: Q01DX005 (ip), vehicle: distilled water + Tween-80
  T/C: 102 % of control
endpoint: median survival time, dose: 100.0 mg/kg/injection, schedule: Q01DX005 (ip), vehicle: distilled water + Tween-80
  T/C: 104 % of control
endpoint: median survival time, dose: 200.0 mg/kg/injection, schedule: Q01DX005 (ip), vehicle: distilled water + Tween-80
  T/C: 98 % of control

## CN=C(N)N=C(N)N
[5]
  T/C: 103 % of control
endpoint: mean survival time, dose: 200.0 mg/kg/injection, schedule: Q04DX003 (ip), vehicle: saline
  T/C: 100 % of control
endpoint: mean survival time, dose: 400.0 mg/kg/injection, schedule: Q04DX003 (ip), vehicle: saline
  T/C: 95 % of control

## CNc1ncnc2[nH]cc([N+](=O)[O-])c12
endpoint: mean survival time, dose: 75.0 mg/kg/injection, schedule: Q01DX001 (ip), vehicle: saline
  T/C: 96 % of control
endpoint: mean survival time, dose: 150.0 mg/kg/injection, schedule: Q01DX001 (ip), vehicle: saline
  T/C: 106 % of control
endpoint: mean survival time, dose: 300.0 mg/kg/injection, schedule: Q01DX001 (ip), vehicle: saline
  T/C: 106 % of control

## CC(=O)c1cccc(N=C(N)N)c1
endpoint: mean survival time, dose: 75.0 mg/kg/injection, schedule: Q01DX001 (ip), vehicle: saline with Tween-80
  T/C: 98 % of control
endpoint: mean survival time, dose: 150.0 mg/kg/injection, schedule: Q01DX001 (ip), vehicle: saline with Tween-80
  T/C: 96 % of control
endpoint: mean survival time, dose: 300.0 mg/kg/injection, schedule: Q01DX001 (ip), vehicle: saline with Tween-80
  T/C: 97 % of control

## NC(=O)NOCc1ccc([N+](=O)[O-])cc1
[4]
  T/C: 97 % of control
endpoint: mean survival time, dose: 200.0 mg/kg/injection, schedule: Q01DX009 (ip), vehicle: saline
  T/C: 96 % of control
endpoint: mean survival time, dose: 400.0 mg/kg/injection, schedule: Q01DX009 (ip), vehicle: saline
  T/C: 95 % of control

## O=S(=O)(F)c1cc(Cl)c(O)c(S(=O)(=O)F)c1
endpoint: mean survival time, dose: 25.0 mg/kg/injection, schedule: Q01DX009 (ip), vehicle: Klucel (hydroxypropylcellulose) (HPC)
  T/C: 97 % of control
endpoint: mean survival time, dose: 50.0 mg/kg/injection, schedule: Q01DX009 (ip), vehicle: Klucel (hydroxypropylcellulose) (HPC)
  T/C: 103 % of control
endpoint: mean survival time, dose: 100.0 mg/kg/injection, schedule: Q01DX009 (ip), vehicle: Klucel (hydroxypropylcellulose) (HPC)
  T/C: 101 % of control

## CC(C)(C)SC1C(O)C(CO)OC1n1ccc(Nc2ccccc2)nc1=O (stereo unspecified)
endpoint: median survival time, dose: 12.5 mg/kg/injection, schedule: Q01DX005 (ip), vehicle: saline with Tween-80
  T/C: 99 % of control
endpoint: median survival time, dose: 25.0 mg/kg/injection, schedule: Q01DX005 (ip), vehicle: saline with Tween-80
  T/C: 99 % of control
endpoint: median survival time, dose: 50.0 mg/kg/injection, schedule: Q01DX005 (ip), vehicle: saline with Tween-80
  T/C: 102 % of control
endpoint: median survival time, dose: 100.0 mg/kg/injection, schedule: Q01DX005 (ip), vehicle: saline with Tween-80
  T/C: 104 % of control
endpoint: median survival time, dose: 200.0 mg/kg/injection, schedule: Q01DX005 (ip), vehicle: saline with Tween-80
  T/C: 90 % of control

## COc1ccccc1F
endpoint: mean survival time, dose: 10.0 mg/kg/injection, schedule: Q01DX009 (ip), vehicle: saline with Tween-80
  T/C: 100 % of control
endpoint: mean survival time, dose: 20.0 mg/kg/injection, schedule: Q01DX009 (ip), vehicle: saline with Tween-80
  T/C: 102 % of control
endpoint: mean survival time, dose: 40.0 mg/kg/injection, schedule: Q01DX009 (ip), vehicle: saline with Tween-80
  T/C: 102 % of control

## O=[N+]([O-])O.[In]
endpoint: mean survival time, dose: 1.25 mg/kg/injection, schedule: Q01DX009 (ip), vehicle: saline
  T/C: 93 % of control
endpoint: mean survival time, dose: 2.5 mg/kg/injection, schedule: Q01DX009 (ip), vehicle: saline
  T/C: 96 % of control
endpoint: mean survival time, dose: 5.0 mg/kg/injection, schedule: Q01DX009 (ip), vehicle: saline
  T/C: 95 % of control
endpoint: mean survival time, dose: 10.0 mg/kg/injection, schedule: Q01DX009 (ip), vehicle: saline
  T/C: 96 % of control

## CCOC(=O)CCN(CCC(=O)OCC)Cc1ccccc1
endpoint: mean survival time, dose: 100.0 mg/kg/injection, schedule: Q04DX002 (ip), vehicle: saline with Tween-80
  T/C: 112 % of control
endpoint: mean survival time, dose: 200.0 mg/kg/injection, schedule: Q04DX002 (ip), vehicle: saline with Tween-80
  T/C: 100 % of control
endpoint: mean survival time, dose: 400.0 mg/kg/injection, schedule: Q04DX002 (ip), vehicle: saline with Tween-80
  T/C: 103 % of control

## Nc1ncnc2c1c(C(=O)NO)cn2C1OC(CO)C(O)C1O (stereo unspecified)
endpoint: mean survival time, dose: 50.0 mg/kg/injection, schedule: Q01DX001 (ip), vehicle: water
  T/C: 170 % of control

## CS(C)=O.CS(C)=O.[Cl][Rh]([Cl])([Cl])[Cl]
[1]
  T/C: 111 % of control
endpoint: mean survival time, dose: 12.5 mg/kg/injection, schedule: Q04DX003 (ip), vehicle: saline
  T/C: 100 % of control
[2]
  T/C: 117 % of control
endpoint: mean survival time, dose: 25.0 mg/kg/injection, schedule: Q04DX003 (ip), vehicle: saline
  T/C: 98 % of control
[3]
  T/C: 119 % of control
endpoint: mean survival time, dose: 50.0 mg/kg/injection, schedule: Q04DX003 (ip), vehicle: saline
  T/C: 100 % of control
[5]
  T/C: 117 % of control

## CCS(=O)(=O)C1(S(=O)(=O)CC)CCCCC1
endpoint: mean survival time, dose: 100.0 mg/kg/injection, schedule: Q01DX001 (ip), vehicle: saline
  T/C: 102 % of control
endpoint: mean survival time, dose: 200.0 mg/kg/injection, schedule: Q01DX001 (ip), vehicle: saline
  T/C: 102 % of control
endpoint: mean survival time, dose: 400.0 mg/kg/injection, schedule: Q01DX001 (ip), vehicle: saline
  T/C: 102 % of control

## O=C(c1ccccc1)c1cc2ccccc2o1
endpoint: mean survival time, dose: 50.0 mg/kg/injection, schedule: Q01DX009 (ip), vehicle: saline + alcohol
  T/C: 102 % of control
endpoint: mean survival time, dose: 100.0 mg/kg/injection, schedule: Q01DX009 (ip), vehicle: saline + alcohol
  T/C: 105 % of control
endpoint: mean survival time, dose: 200.0 mg/kg/injection, schedule: Q01DX009 (ip), vehicle: saline + alcohol
  T/C: 93 % of control

## COc1ccc(S(=O)(=O)N=N/C=C2\C=CC=CN2O)cc1OC
endpoint: median survival time, dose: 3.12 mg/kg/injection, schedule: Q01DX009 (ip), vehicle: saline with Tween-80
  T/C: 101 % of control
endpoint: median survival time, dose: 6.25 mg/kg/injection, schedule: Q01DX009 (ip), vehicle: saline with Tween-80
  T/C: 107 % of control
endpoint: median survival time, dose: 12.5 mg/kg/injection, schedule: Q01DX009 (ip), vehicle: saline with Tween-80
  T/C: 104 % of control
endpoint: median survival time, dose: 18.0 mg/kg/injection, schedule: Q01DX009 (ip), vehicle: saline with Tween-80
  T/C: 103 % of control
endpoint: median survival time, dose: 37.0 mg/kg/injection, schedule: Q01DX009 (ip), vehicle: saline with Tween-80
  T/C: 105 % of control
endpoint: median survival time, dose: 100.0 mg/kg/injection, schedule: Q01DX009 (ip), vehicle: saline with Tween-80
  T/C: 113 % of control
endpoint: median survival time, dose: 150.0 mg/kg/injection, schedule: Q01DX009 (ip), vehicle: saline with Tween-80
  T/C: 98 % of control
endpoint: median survival time, dose: 200.0 mg/kg/injection, schedule: Q01DX009 (ip), vehicle: saline with Tween-80
  T/C: 95 % of control
